Results: publication PMC10572522, “A Designed Analog of an Antimicrobial Peptide, Crabrolin, Exhibits Enhanced Anti-Proliferative and In Vivo Antimicrobial Activity” (International Journal of Molecular Sciences, 2023)
Residues, ends and D or L forms follow the SMILES beside them.

What was measured:
S. aureus (NCTC 10788) = assay: Antimicrobial susceptibility assay (MIC/MBC); type: cell-based, Staphylococcus aureus; conditions: for MIC: MHB, 37 °C, 20 h
Method: (§1) Six bacteria were tested in this experiment to detect the antimicrobial effects of crabrolin and its derivatives, including S. aureus (NCTC 10788), MRSA (NCTC 12493), E. coli (ATCC 8739), K. pneumoniae (ATCC 43816), E. faecium (NTCC-12697), and P. aeruginosa (ATCC 9027). The tested bacteria were cultured in Mueller Hinton broth medium (MHB) with norfloxacin (20 mg/L) as a positive control. All bacteria were incubated at 37 °C overnight and diluted to 5 × 10^5 CFU/mL before treating with the peptides. Stock solutions of 51,200 µM peptides were prepared in phosphate-buffered saline (PBS) and further diluted by a factor of two to 100 µM. Next, 1 µL of each peptide solution was mixed with 99 µL of bacterial subculture in a 96-well plate, and the plate was incubated at 37 °C for 20 h. After culturing, the absorbance of each well in the 96-well plate was analyzed at 550 nm using a Synergy HT plate reader (BioliseBioTek, Winooski, VT, USA). […] Starting with the MIC value, 10 µL of the solution from each well was dripped onto Mueller Hinton agar (MHA) plates. The plates were cultured at 37 °C for 20 h. After culturing, the lowest concentration with no colony growth was regarded as the MBC.

MRSA (NCTC 12493) = assay: Antimicrobial susceptibility assay (MIC/MBC); type: cell-based, methicillin-resistant Staphylococcus aureus; conditions: for MIC: MHB, 37 °C, 20 h
Method: as §1

[1] = tested on: MRSA (NCTC 12493) biofilm; type: cell-based, methicillin-resistant Staphylococcus aureus; conditions: for MBIC: biofilm inhibitory rate more than 90%; for MBEC: eradication rate greater than 99.9%
Method: (§2) To measure the antibiofilm activity of crabrolin and its derivatives, four drug-resistant biofilm-forming strains, MRSA (NCTC 12493), K. pneumoniae (ATCC 43816), E. faecium (NTCC-12697), and P. aeruginosa (ATCC 9027), were used in this assay. Tryptic soy broth (TSB) (for the Gram-positive bacteria) and Luria–Bertani broth (LB) (for the Gram-negative bacteria) were used to culture the bacteria.
(§3) The mass of the biofilm in this assay was detected by the crystal violet staining method. First, 100 μL of 5 × 10^5 CFU/mL bacteria was incubated with 1 μL of different peptide solutions (ranging from 51200 μM to 100 μM) for 24 h at 37 °C with 200 rpm shaking. After the biofilm formation, 100 μL of PBS was used to rinse the biofilm twice. Next, 100 µL of methanol was added to fix the biofilm, and the biofilm was then dried. Thereafter, 100 μL of 0.1% crystal violet was added and left to stain for 15 min, and then the excess crystal violet was further rinsed by PBS. After the plate had air-dried, 30% glacial acetic acid was added to each well of the plate, and the plate was shaken for 15 min before the optical density (OD) value was measured at 595 nm using a Synergy HT plate reader. The MBIC value refers to the minimum concentration at which the biofilm inhibitory rate was more than 90%.
(§4) Different from measuring the MBIC value, to determine the MBEC value, 100 μL of the bacteria was first added to 96-well plates. After the biofilm was formed, the biofilm was rinsed with PBS twice to remove the planktonic cells, and then different concentrations of the drugs were added to the biofilm (the same as the MBIC assay). The mixture was incubated at 37 °C with shaking at 200 rpm. After 24 h of incubation, the mass of the biofilm was measured in the same way as the MBIC value, and the minimum concentration at which the eradication rate was greater than 99.9% was considered to be the MBEC value.

[2] = tested on: E. faecium (NTCC12697) biofilm; type: cell-based, Enterococcus faecium; conditions: for MBIC: biofilm inhibitory rate more than 90%; for MBEC: eradication rate greater than 99.9%
Method: as §2, §3, §4

[3] = tested on: human breast cancer cell line MCF-7; assay: Anti-proliferative assay (MTT); type: cell-based; conditions: MCF-7, MTT, 24 h
Method: (§5) The human non-small-cell lung cancer line, H838, the human prostate carcinoma cell line, PC-3, the human glioblastoma astrocytoma, U251MG, the human breast cancer cell line, MCF-7, the human colorectal carcinoma cell line, HCT116, and the human keratinocyte cell line, HaCaT, were used to detect the anti-proliferative effects of the crabrolin and its derivatives in vitro. A total of 8000 cells were seeded in each well of a 96-well plate. After the cells had adhered to the wall, the cells were starved for 4 h. After the starvation, the cells were incubated with different concentrations of the drugs, ranging from 100 µM to 1 nM, for 24 h, with 0.1% Triton X-100 used as a positive control. Next, 10 µL of MTT (3-(4,5-dimethylthiazol-2-yl)-2,5-diphenyltetrazolium bromide) solution (5 mg/mL) was added to each well of the 96-well plate. After 2 h of incubation, 100 μL of DMSO-superseded medium was added to each well to dissolve the formazan crystals. Finally, the absorbance was detected using a Synergy HT plate reader at 570 nm.

[4] = tested on: human colorectal carcinoma cell line HCT-116; assay: Anti-proliferative assay (MTT); type: cell-based; conditions: HCT-116, MTT, 24 h
Method: as §5

[5] = tested on: human glioblastoma astrocytoma U251MG; assay: Anti-proliferative assay (MTT); type: cell-based; conditions: 24 h
Method: as §5

[6] = tested on: human keratinocyte cell line HaCaT; assay: Anti-proliferative assay (MTT); type: cell-based; conditions: HaCaT (normal keratinocytes), 24 h
Method: as §5

[7] = tested on: human non-small-cell lung cancer line H838; assay: Anti-proliferative assay (MTT); type: cell-based; conditions: 24 h
Method: as §5

[8] = tested on: human prostate carcinoma cell line PC-3; assay: Anti-proliferative assay (MTT); type: cell-based; conditions: PC3, MTT, 24 h
Method: as §5

Hemolysis assay = type: cell-based, horse; conditions: horse, erythrocytes (2% suspension); for hemolysis at 2 h: at the peptide's maximum MIC, relative to Triton X-100, read-out: Hemolysis under the Maximum MIC
Method: (§6) According to the procedures described in detail in a previous study, the debris and impurities of the erythrocytes were washed with PBS in advance to yield 2% of the erythrocyte suspension, and the drug concentration was diluted from 1024 µM to 2 µM with PBS [53]. The same amounts of the drug and the erythrocyte suspension were mixed and cultured at 37 °C for 2 h; 0.1% Triton X-100 (Sigma-Aldrich, St. Louis, MO, USA) was prepared as a positive control, and PBS was prepared as a negative control. After the incubation, the supernatant was transferred to a 96-well plate and then detected using a Synergy HT plate reader at 570 nm.

horse erythrocytes = assay: Hemolysis assay; type: cell-based; conditions: for HC10 (10% hemolytic concentration) / HC50 (50% hemolytic concentration): erythrocytes, 37 °C, 2 h
Method: as §6

[9] = tested on: Galleria mellonella larvae; assay: Toxicity to Galleria mellonella larvae without infection; type: in vivo; conditions: highest dose (50 mg/kg)

SMILES	MBC (S. aureus (NCTC 10788))	MIC (S. aureus (NCTC 10788))	MBC (MRSA (NCTC 12493))	MIC (MRSA (NCTC 12493))	MBIC [1]	MBEC [1]	MBIC [2]	MBEC [2]	IC50 [3]	IC50 [4]	IC50 [5]	IC50 [6]	IC50 [7]	IC50 [8]	hemolysis at 2 h (Hemolysis assay)	HC10 (10% hemolytic concentration) (horse erythrocytes)	HC50 (50% hemolytic concentration) (horse erythrocytes)	Death of healthy larvae [9]	further results
CC[C@H](C)[C@H](NC(=O)[C@H](CC(C)C)NC(=O)[C@@H]1CCCN1C(=O)[C@H](CC(C)C)NC(=O)[C@@H](N)Cc1ccccc1)C(=O)N[C@@H](CC(C)C)C(=O)N[C@@H](CCCNC(=N)N)C(=O)N[C@@H](CCCCN)C(=O)N[C@H](C(=O)N[C@H](C(=O)N[C@H](C(=O)N[C@@H](C)C(=O)N[C@@H](CC(C)C)C(N)=O)[C@@H](C)O)C(C)C)[C@@H](C)CC [Crabrolin, FLPLILRKIVTAL-NH2] (H-FLPLILRKIVTAL-NH2)	4 µM	2 µM	8 µM	4 µM	4 µM	128 µM	32 µM	> 512 µM	26.5 µM	8.54 µM	20.1 µM	31.2 µM	27.7 µM	32.1 µM	53.5%	34.575 µM	120.654 µM	did not result in the death of healthy larvae	MIC (MRSA (NCTC 12493); listed as crabrolin): 8 µM; Hemolytic activity (horse erythrocytes; 256 µM): 100%
CC[C@H](C)[C@H](NC(=O)[C@H](CCCNC(=N)N)NC(=O)[C@@H]1CCCN1C(=O)[C@H](CC(C)C)NC(=O)[C@@H](N)Cc1ccccc1)C(=O)N[C@@H](CC(C)C)C(=O)N[C@@H](CCCNC(=N)N)C(=O)N[C@@H](CCCCN)C(=O)N[C@H](C(=O)N[C@H](C(=O)N[C@@H](CCCNC(=N)N)C(=O)N[C@@H](C)C(=O)N[C@@H](CC(C)C)C(N)=O)C(C)C)[C@@H](C)CC [Crabrolin-TR, FLPRILRKIVRAL-NH2] (H-FLPRILRKIVRAL-NH2)	2 µM	1 µM	2 µM	2 µM	2 µM	64 µM	16 µM	> 512 µM	3.46 µM	2.81 µM	12.4 µM	20.9 µM	4.64 µM	3.94 µM	3.76%	36.041 µM	211.927 µM	did not result in the death of healthy larvae	IC50 ([3]; listed as crabrolin-TR): < 10 µM; IC50 ([5]; listed as crabrolin-TR): > 10 µM; IC50 ([7]; listed as crabrolin-TR): < 10 µM; IC50 ([8]; listed as crabrolin-TR): < 10 µM; hemolysis at 2 h, 100 µM (Hemolysis assay; 100 μM): ~50%; Hemolysis (horse erythrocytes; 8 μM): neither crabrolin-TR nor crabrolin21 caused hemolysis
